Test results as given in patent publication US8592426B2, “Aryl-benzocycloalkyl amide derivatives” (Hoffmann—La Roche Inc., priority 2011, dated 2013).

Experiments:
[1] = biological target: T1, Bradykinin-1 receptor (Homo sapiens (Human), UniProt P46663); assay: Receptor binding assay (B1R Binding Assay), [3H]-Kallidin (Des Arg10, Leu9) displacement; settings: membranes from CHO-K1 cells overexpressing Bradykinin-1 receptor; 6 nM radioligand
Description: Binding assays were done with membranes from CHO-K1 cells overexpressing Bradykinin-1 receptor.
To determine non-specific binding 10 μM Lys-(Des-Arg^9)-Bradykinin (Bachem) was added. Membranes were harvested through GF/B (glass fiber filter; PerkinElmer) plates, equilibrated with 0.5% polyethylenimine, air dried at 50° C. for 2 h. Radioactivity was determined by counting in a topcounter (NXT Packard).

[2] = biological target: T1, Bradykinin-1 receptor; assay: Calcium mobilization assay (FLIPR, Fluo-4) in GeneBLAzer Bradykinin (B1)-NFAT-bla CHO-K1 cells; assay type: cell-based; settings: antagonist activity; CHO-K1 cells stably overexpressing the human bradykinin 1 receptor; read-out: Ca mobilization Assay IC50
Description: Calcium Mobilization Assay
GeneBLAzer® Bradykinin (B1)-NFAT-bla CHO-K1 cells (from Invitrogen) stably overexpressing the human bradykinin 1 receptor were cultured in DMEM (high glucose) supplemented with 10% dialysed FBS, 1% NEAA (non essential amino acids) 1% penicillin/streptomycin, 1% G418 and 0.1 mg/ml zeocin.
For the assay cells were grown overnight in 384-well black clear flat bottom polystyrene plates (Costar) at 37° C. at 5% CO2. After washing with DMEM, 20 mM Hepes, 2.5 mM probenecid, 0.1% BSA (DMEM assay buffer) cells were loaded with 4 μM Fluo-4 in the same DMEM assay buffer for 2 hours at 30° C. Excess dye was removed and cells were washed with DMEM assay buffer. 384-well compound plates were prepared with DMEM assay buffer/0.5% DMSO with or without various concentrations of test compounds. Usually compounds were tested for agonist and antagonist activity.
Test compounds were added to the assay plate and agonist activity was monitored as fluorescence for 80 seconds with a FLIPR (488 nm excitation; 510-570 nm emission; Molecular Devices). After 20-30 min. of incubation at 30° C., 20 nM […] (R&D; Roche) was added and fluorescence was monitored again for 80 seconds. Increases in intracellular calcium are reported as maximum fluorescence after agonist exposure minus basal fluorescence before exposure.

T1 sequence (P46663 whole entry): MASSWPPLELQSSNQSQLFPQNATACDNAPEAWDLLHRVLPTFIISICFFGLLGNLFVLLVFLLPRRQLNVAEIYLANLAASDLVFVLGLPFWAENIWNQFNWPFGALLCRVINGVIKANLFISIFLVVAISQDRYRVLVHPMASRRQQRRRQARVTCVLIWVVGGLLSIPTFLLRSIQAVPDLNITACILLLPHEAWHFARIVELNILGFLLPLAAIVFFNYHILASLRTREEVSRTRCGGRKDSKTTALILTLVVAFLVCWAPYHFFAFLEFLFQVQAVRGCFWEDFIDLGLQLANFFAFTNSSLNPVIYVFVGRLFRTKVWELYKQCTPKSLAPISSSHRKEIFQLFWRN

Compound	Ki [1]	IC50 [2]
Cn1nnc(-c2c(F)cc(Cl)cc2-c2ccc3c(c2)CCC3(C)NC(=O)C2(NC(=O)C(F)(F)F)CC2)n1 (racemic) [Example 18, 1-(2,2,2-Trifluoro-acetylamino)-cyclopropanecarboxylic acid{(rac)-5-[5-chloro-3-fluoro-2-(2-methyl-2H-tetrazol-5-yl)-phenyl]-1-methyl-indan-1-yl}-amide]	6.7 nM	0.5 nM
Cn1nnc(-c2c(F)cc(Cl)cc2-c2cnc3c(c2)CCC3NC(=O)C2(NC(=O)c3ccno3)CC2)n1 (racemic) [Example 57, Isoxazole-5-carboxylic acid(1-{(rac)-3-[5-chloro-3-fluoro-2-(2-methyl-2H-tetrazol-5-yl)-phenyl]-6,7-dihydro-5H-[1]pyrindin-7-ylcarbamoyl}-cyclopropyl)-amide]	5.8 nM	0.4 nM
Cc1nnc(C(=O)NC2(C(=O)NC3CSc4cc(-c5cc(Cl)cc(F)c5-c5nnn(C)n5)ccc43)CC2)o1 (racemic) [Example 62, 5-Methyl-[1,3,4]oxadiazole-2-carboxylic acid(1-{(rac)-6-[5-chloro-3-fluoro-2-(2-methyl-2H-tetrazol-5-yl)-phenyl]-2,3-dihydro-benzo[b]thiophen-3-ylcarbamoyl}-cyclopropyl)-amide]	12.2 nM	4.8 nM
O=C(NC1(C(=O)NC2CCCc3cc(-c4cc(Cl)cc(Cl)c4OCC(F)F)ccc32)CC1)C(F)(F)F (racemic) [Example 9, 1-(2,2,2-Trifluoro-acetylamino)-cyclopropanecarboxylic acid{(rac)-6-[3,5-dichloro-2-(2,2-difluoro-ethoxy)-phenyl]-1,2,3,4-tetrahydro-naphthalen-1-yl}-amide]	236 nM	82.6 nM
Cc1nc(-c2c(F)cc(Cl)cc2-c2cc(F)c3c(c2)CCC3NC(=O)C2(N)CC2)no1 (racemic) [Example 32, 1-Amino-cyclopropanecarboxylic acid{(rac)-5-[5-chloro-3-fluoro-2-(5-methyl-[1,2,4]oxadiazol-3-yl)-phenyl]-7-fluoro-indan-1-yl}-amide]	458 nM	95.6 nM
COc1cc(C(=O)NC2(C(=O)NC3CSc4cc(-c5cc(Cl)cc(F)c5-c5nnn(C)n5)ccc43)CC2)on1 (racemic) [Example 65, 3-Methoxy-isoxazole-5-carboxylic acid(1-{(rac)-6-[5-chloro-3-fluoro-2-(2-methyl-2H-tetrazol-5-yl)-phenyl]-2,3-dihydro-benzo[b]thiophen-3-ylcarbamoyl}-cyclopropyl)-amide]	4.4 nM	0.2 nM
Cc1nc(-c2c(F)cc(Cl)cc2-c2cc(F)c3c(c2)CCC3NC(=O)C2(NC(=O)OC(C)(C)C)CC2)no1 (racemic) [Example 31, (1-{(rac)-5-[5-Chloro-3-fluoro-2-(5-methyl-[1,2,4]oxadiazol-3-yl)-phenyl]-7-fluoro-indan-1-ylcarbamoyl}-cyclopropyl)-carbamic acid tert-butyl ester]	475 nM	135 nM
Cn1nnc(-c2c(F)cc(Cl)cc2-c2ccc3c(c2)SCC3NC(=O)C2(NC(=O)C(F)(F)F)CC2)n1 (racemic) [Example 22, 1-(2,2,2-Trifluoro-acetylamino)-cyclopropanecarboxylic acid{(rac)-6-[5-chloro-3-fluoro-2-(2-methyl-2H-tetrazol-5-yl)-phenyl]-2,3-dihydro-benzo[b]thiophen-3-yl}-amide]	6.6 nM	0.8 nM
Cc1nc(-c2c(F)cc(Cl)cc2-c2ccc3c(c2)CCC3NC(=O)C2(NC(=O)C(F)(F)F)CC2)no1 (racemic) [Example 4, 1-(2,2,2-Trifluoro-acetylamino)-cyclopropanecarboxylic acid (rac)-{5-[5-chloro-3-fluoro-2-(5-methyl-[1,2,4]oxadiazol-3-yl)-phenyl]-indan-1-yl}-amide]	20.2 nM	2 nM
